Measured values: article PMC7753147, “High-throughput determination of protein affinities using unmodified peptide libraries in nanomolar scale” (iScience, 2020)

What was measured:
[1] = tested on: gephE; assay: µSPOT peptide microarray binding assay with recombinant gephE
[2] = tested on: native geph; assay: µSPOT peptide microarray binding assay with native geph from mouse brain lysate
[3] = tested on: FL-geph; assay: µSPOT peptide microarray binding assay with full-length geph
[4] = µSPOT peptide microarray, GlyRβ full positional scan, recombinant gephE, intensity normalised to wild-type sequence DLRSNDFSIVGSLPR (=1)
[5] = µSPOT peptide microarray, GlyRβ full positional scan, native geph from mouse brain lysate, intensity normalised to wild-type sequence DLRSNDFSIVGSLPR (=1)
[6] = µSPOT peptide microarray, GlyRβ full positional scan, intensity normalised to wild-type sequence DLRSNDFSIVGSLPR (=1)
[7] = µSPOT full positional scan of GlyRβ 15-mer DLRSNDFSIVGSLPR, intensity normalised to wild-type sequence (= 1)

Row | Sequence | gephE Binding Intensity [norm.] [1, 4] [norm.] | Native geph Binding Intensity [norm.] [2, 5] [norm.] | Fl-geph Binding Intensity [norm.] [3, 6] [norm.] | gephE Binding Intensity [norm.] [1, 7] [norm.] | Native geph Binding Intensity [norm.] ([2]; µSPOT full positional scan of GlyRβ 15-mer DLRSNDFSIVGSLPR, native geph, intensity normalised to wild-type sequence (= 1)) | Fl-geph Binding Intensity [norm.] [3, 7] [norm.]
1 | DLRSNDFAIVGSLPR [GlyRβ_Full_Positional_Scan_141, GlyR β 414-428 variant S421A] | 0.55 | 0.35 | 0.79 | – | – | –
2 | DLRSNDFDIVGSLPR [GlyRβ_Full_Positional_Scan_150, GlyR β 414-428 variant S421D] | 0.53 | 0.29 | 0.9 | – | – | –
3 | DLRSNDFFIVGSLPR [GlyRβ_Full_Positional_Scan_147, GlyR β 414-428 variant S421F] | 0.53 | 0.18 | 0.64 | – | – | –
4 | DLRSNDFIIVGSLPR [GlyRβ_Full_Positional_Scan_143, GlyR β 414-428 variant S421I] | 0.4 | 0.18 | 0.41 | – | – | –
5 | DLRSNDFKIVGSLPR [GlyRβ_Full_Positional_Scan_154, GlyR β 414-428 variant S421K] | 0.65 | 0.24 | 0.92 | – | – | –
6 | DLRSNDFLIVGSLPR [GlyRβ_Full_Positional_Scan_144, GlyR β 414-428 variant S421L] | 0.6 | 0.2 | 0.54 | – | – | –
7 | DLRSNDFMIVGSLPR [GlyRβ_Full_Positional_Scan_158, GlyR β 414-428 variant S421M] | 0.73 | 0.54 | 0.88 | – | – | –
8 | DLRSNDFNIVGSLPR [GlyRβ_Full_Positional_Scan_159, GlyR β 414-428 variant S421N] | 0.72 | 0.64 | 1.03 | – | – | –
9 | DLRSNDFPIVGSLPR [GlyRβ_Full_Positional_Scan_145, GlyR β 414-428 variant S421P] | 0.48 | 0.25 | 0.66 | – | – | –
10 | DLRSNDFQIVGSLPR [GlyRβ_Full_Positional_Scan_160, GlyR β 414-428 variant S421Q] | 0.66 | 0.47 | 0.9 | – | – | –
11 | DLRSNDFSFVGSLPR [GlyRβ_Full_Positional_Scan_167, GlyR β 414-428 variant I422F] | 0.51 | 0.27 | 0.76 | – | – | –
12 | DLRSNDFSHVGSLPR [GlyRβ_Full_Positional_Scan_173, GlyR β 414-428 variant I422H] | 0.41 | 0.21 | 0.55 | – | – | –
13 | DLRSNDFSIAGSLPR [GlyRβ_Full_Positional_Scan_181, GlyR β 414-428 variant V423A] | 0.51 | 0.47 | 0.65 | – | – | –
14 | DLRSNDFSICGSLPR [GlyRβ_Full_Positional_Scan_197, GlyR β 414-428 variant V423C] | 0.45 | 0.36 | 0.67 | – | – | –
15 | DLRSNDFSIKGSLPR [GlyRβ_Full_Positional_Scan_194, GlyR β 414-428 variant V423K] | 0.5 | 0.16 | 0.63 | – | – | –
16 | DLRSNDFSILGSLPR [GlyRβ_Full_Positional_Scan_184, GlyR β 414-428 variant V423L] | 0.39 | 0.23 | 0.66 | – | – | –
17 | DLRSNDFSIQGSLPR [GlyRβ_Full_Positional_Scan_200, GlyR β 414-428 variant V423Q] | 0.7 | 0.41 | 1.03 | – | – | –
18 | DLRSNDFSISGSLPR [GlyRβ_Full_Positional_Scan_195, GlyR β 414-428 variant V423S] | 0.41 | 0.3 | 0.64 | – | – | –

Further lines, results first:

Row | gephE Binding Intensity [norm.] [1, 4] [norm.] | Native geph Binding Intensity [norm.] [2, 5] [norm.] | Fl-geph Binding Intensity [norm.] [3, 6] [norm.] | gephE Binding Intensity [norm.] [1, 7] [norm.] | Native geph Binding Intensity [norm.] ([2]; µSPOT full positional scan of GlyRβ 15-mer DLRSNDFSIVGSLPR, native geph, intensity normalised to wild-type sequence (= 1)) | Fl-geph Binding Intensity [norm.] [3, 7] [norm.] | Sequence
19 | 0.66 | 0.36 | 0.71 | – | – | – | DLRSNDFCIVGSLPR [GlyRβ_Full_Positional_Scan_157, GlyR β 414-428 variant S421C]
20 | 0.47 | 0.2 | 0.79 | – | – | – | DLRSNDFEIVGSLPR [GlyRβ_Full_Positional_Scan_151, GlyR β 414-428 variant S421E]
21 | 0.8 | 0.48 | 0.95 | – | – | – | DLRSNDFHIVGSLPR [GlyRβ_Full_Positional_Scan_153, GlyR β 414-428 variant S421H]
22 | 0.8 | 0.23 | 0.92 | – | – | – | DLRSNDFRIVGSLPR [GlyRβ_Full_Positional_Scan_152, GlyR β 414-428 variant S421R]
23 | 0.56 | 0.52 | 0.81 | – | – | – | DLRSNDFSAVGSLPR [GlyRβ_Full_Positional_Scan_161, GlyR β 414-428 variant I422A]
24 | 0.29 | 0.17 | 0.29 | – | – | – | DLRSNDFSDVGSLPR [GlyRβ_Full_Positional_Scan_170, GlyR β 414-428 variant I422D]
25 | 0.24 | 0.13 | 0.25 | – | – | – | DLRSNDFSEVGSLPR [GlyRβ_Full_Positional_Scan_171, GlyR β 414-428 variant I422E]
26 | 0.56 | 0.34 | 0.53 | – | – | – | DLRSNDFSGVGSLPR [GlyRβ_Full_Positional_Scan_162, GlyR β 414-428 variant I422G]
27 | 0.46 | 0.28 | 0.35 | – | – | – | DLRSNDFSIDGSLPR [GlyRβ_Full_Positional_Scan_190, GlyR β 414-428 variant V423D]
28 | 0.58 | 0.53 | 0.69 | – | – | – | DLRSNDFSIEGSLPR [GlyRβ_Full_Positional_Scan_191, GlyR β 414-428 variant V423E]
29 | 0.64 | 0.43 | 0.7 | – | – | – | DLRSNDFSIFGSLPR [GlyRβ_Full_Positional_Scan_187, GlyR β 414-428 variant V423F]
30 | 0.48 | 0.27 | 0.56 | – | – | – | DLRSNDFSIGGSLPR [GlyRβ_Full_Positional_Scan_182, GlyR β 414-428 variant V423G]
31 | 0.32 | 0.2 | 0.46 | – | – | – | DLRSNDFSIHGSLPR [GlyRβ_Full_Positional_Scan_193, GlyR β 414-428 variant V423H]
32 | 0.44 | 0.38 | 0.86 | – | – | – | DLRSNDFSIMGSLPR [GlyRβ_Full_Positional_Scan_198, GlyR β 414-428 variant V423M]
33 | 0.4 | 0.17 | 0.79 | – | – | – | DLRSNDFSINGSLPR [GlyRβ_Full_Positional_Scan_199, GlyR β 414-428 variant V423N]
34 | 0.41 | 0.31 | 0.51 | – | – | – | DLRSNDFSIPGSLPR [GlyRβ_Full_Positional_Scan_185, GlyR β 414-428 variant V423P]
35 | 0.6 | 0.21 | 0.73 | – | – | – | DLRSNDFSIRGSLPR [GlyRβ_Full_Positional_Scan_192, GlyR β 414-428 variant V423R]
36 | 0.66 | 0.59 | 0.97 | – | – | – | DLRSNDFSITGSLPR [GlyRβ_Full_Positional_Scan_196, GlyR β 414-428 variant V423T]
37 | 0.34 | 0.18 | 0.56 | – | – | – | DLRSNDFSIVASLPR [GlyRβ_Full_Positional_Scan_201, GlyR β 414-428 variant G424A]
38 | – | – | – | 0.43 | 0.23 | 0.45 | DLRSNDFSIVCSLPR [GlyRβ_Full_Positional_Scan_217, GlyR β 414-428 variant G424C]
